Tests used:
[1] = test system: DIGSA; assay: greenhouse post-emergence herbicidal activity; assay type: in vivo, Digitaria sanguinales; settings: scale 0 to 100
Source text: (§1) The culture containers used were plastic flowerpots containing loamy sand with approximately 3.0% of humus as the substrate. The seeds of the test plants were sown separately for each species.
(§2) For the post-emergence treatment, the test plants were first grown to a height of 3 to 15 cm, depending on the plant habit, and only then treated with the active ingredients which had been suspended or emulsified in water. For this purpose, the test plants were either sown directly and grown in the same containers, or they were first grown separately as seedlings and transplanted into the test containers a few days prior to treatment.
(§3) Depending on the species, the plants were kept at 10-25° C. or 20-35° C. The test period extended over 2 to 4 weeks. During this time, the plants were tended, and their response to the individual treatments was evaluated.
(§4) Evaluation was carried out using a scale from 0 to 100. 100 means no emergence of the plants, or complete destruction of at least the aerial moieties, and 0 means no damage, or normal course of growth. A good herbicidal activity is given at values of at least 70 and a very good herbicidal activity is given at values of at least 85.

[2] = test system: BRAPL; assay: greenhouse post-emergence herbicidal activity; assay type: in vivo, Brachiaria plantaginea; settings: scale 0 to 100
Source text: as §1, §2, §3, §4

[3] = test system: SETVI; assay: greenhouse post-emergence herbicidal activity; assay type: in vivo, Setaria viridis; settings: scale 0 to 100
Source text: as §1, §2, §3, §4

[4] = test system: PANDI; assay: greenhouse pre-emergence herbicidal activity; assay type: in vivo, Panicum dichotomiflorun; settings: scale 0 to 100
Source text: as §1
(§5) For the pre-emergence treatment, the active ingredients, which had been suspended or emulsified in water, were applied directly after sowing by means of finely distributing nozzles. The containers were irrigated gently to promote germination and growth and subsequently covered with transparent plastic hoods until the plants had rooted. This cover caused uniform germination of the test plants, unless this has been impaired by the active ingredients.
as §3, §4

[5] = test system: SETFA; assay: greenhouse post-emergence herbicidal activity; assay type: in vivo, Setaria faberi; settings: scale 0 to 100
Source text: as §1, §2, §3, §4

[6] = test system: ABUTH; assay: greenhouse pre-emergence herbicidal activity; assay type: in vivo, Abutilon theophrasti; settings: scale 0 to 100
Source text: as §1, §5, §3, §4

[7] = test system: ECHCG; assay: greenhouse post-emergence herbicidal activity; assay type: in vivo, Echinocloa crus-galli; settings: scale 0 to 100
Source text: as §1, §2, §3, §4

[8] = test system: STEME; assay: greenhouse pre-emergence herbicidal activity; assay type: in vivo, Stellaria media; settings: scale 0 to 100
Source text: as §1, §5, §3, §4

[9] = test system: SETVI; assay: greenhouse pre-emergence herbicidal activity; assay type: in vivo, Setaria viridis; settings: scale 0 to 100
Source text: as §1, §5, §3, §4

[10] = test system: LAMAM; assay: greenhouse pre-emergence herbicidal activity; assay type: in vivo, Lamium amplexicaule; settings: scale 0 to 100
Source text: as §1, §5, §3, §4

[11] = test system: Amaranthus retroflexus; assay: greenhouse pre-emergence herbicidal activity; assay type: in vivo; settings: 6.25 g/ha, pre-emergence method
Source text: as §1, §5, §3, §4

[12] = test system: Erigeron canadensis; assay: greenhouse pre-emergence herbicidal activity; assay type: in vivo; settings: 6.25 g/ha, pre-emergence method
Source text: as §1, §5, §3, §4

[13] = test system: Pharbitis purpurea; assay: greenhouse post-emergence herbicidal activity; assay type: in vivo; settings: 6.25 g/ha, post-emergence method
Source text: as §1, §2, §3, §4

[14] = test system: Ambrosia elatior; assay: greenhouse post-emergence herbicidal activity; assay type: in vivo; settings: 6.25 g/ha, post-emergence method
Source text: as §1, §2, §3, §4

[15] = test system: Chenopodium album; assay: greenhouse post-emergence herbicidal activity; assay type: in vivo; settings: 6.25 g/ha, post-emergence method
Source text: as §1, §2, §3, §4

[16] = test system: Abutilon theophrasti; assay: greenhouse post-emergence herbicidal activity; assay type: in vivo; settings: 6.25 g/ha, post-emergence method
Source text: as §1, §2, §3, §4

SMILES: Cc1cnc(C2=NC(=O)C(C)(C(C)C)N2)c(C(=O)O)c1 (stereo not drawn) [B.30, imazapic, reference compound]
- herbicidal activity against DIGSA found ([1]; B.30 10 g/ha a.s.): 85
- herbicidal activity against BRAPL found ([2]; B.30 10 g/ha a.s.): 70

SMILES: CC(C)N(C)S(=O)(=O)NC(=O)c1cc(-n2c(=O)cc(C(F)(F)F)n(C)c2=O)c(F)cc1Cl [B.76, saflufenacil, reference compound]
- herbicidal activity against SETVI found ([3]; B.76 12.5 g/ha a.s.): 40
- herbicidal activity against PANDI found ([4]; B.76 6.25 g/ha a.s.): 55
- herbicidal activity against SETFA found ([5]; B.76 12.5 g/ha a.s.): 30
- herbicidal activity against ABUTH found ([6]; B.76 6.25 g/ha a.s.): 75

SMILES: CC(C)N.O=C(O)CNCP(=O)(O)O [B.97, glyphosate-isopropylammonium, reference compound]
- herbicidal activity against ECHCG found ([7]; B.97 135 g/ha a.s.): 85

SMILES: CCC(CC)Nc1c([N+](=O)[O-])cc(C)c(C)c1[N+](=O)[O-] [B.102, pendimethalin, reference compound]
- herbicidal activity against STEME found ([8]; B.102 400 g/ha a.s.): 75

SMILES: COC[C@H](C)N(C(=O)CCl)c1c(C)csc1C [B.107, dimethenamid-P, reference compound]
- herbicidal activity against PANDI found ([4]; B.107 15 g/ha a.s.): 95
- herbicidal activity against SETVI found ([9]; B.107 15 g/ha a.s.): 70

SMILES: Cn1nc(C(F)(F)F)c(CS(=O)(=O)C2=NOC(C)(C)C2)c1OC(F)F [B.117, pyroxasulfone, reference compound]
- herbicidal activity against LAMAM found ([10]; B.117 6.25 g/ha a.s.): 35
- herbicidal activity against STEME found ([8]; B.117 6.25 g/ha a.s.): 60

SMILES: C#CCN1C(=O)C(F)(F)Oc2cc(F)c(N3C(=O)C4=C(CCCC4)C3=O)cc21 [Ia18, 2-(2,2,7-Trifluoro-3-oxo-4-prop-2-ynyl-3,4-dihydro-2H-benzo[1,4]oxazin-6-yl)-4,5,6,7-tetrahydro-isoindole-1,3-dione]
- herbicidal activity against Amaranthus retroflexus [11]: very good herbicidal activity (a very good herbicidal activity is given at values of at least 85)
- herbicidal activity against Erigeron canadensis [12]: very good herbicidal activity (a very good herbicidal activity is given at values of at least 85)
- herbicidal activity against LAMAM found ([10]; Ia18 12.5 g/ha a.s.): 80
- herbicidal activity against Pharbitis purpurea [13]: very good herbicidal activity (a very good herbicidal activity is given at values of at least 85)
- herbicidal activity against Ambrosia elatior [14]: very good herbicidal activity (a very good herbicidal activity is given at values of at least 85)
- herbicidal activity against Chenopodium album [15]: very good herbicidal activity (a very good herbicidal activity is given at values of at least 85)
- herbicidal activity against Abutilon theophrasti [16]: very good herbicidal activity (a very good herbicidal activity is given at values of at least 85)
- herbicidal activity against SETVI found ([3]; Ia18 6.25 g/ha a.s.): 55
- herbicidal activity against ECHCG found ([7]; Ia18 6.25 g/ha a.s.): 30
- herbicidal activity against DIGSA found ([1]; Ia18 6.25 g/ha a.s.): 20
- herbicidal activity against BRAPL found ([2]; Ia18 6.25 g/ha a.s.): 25
- herbicidal activity against PANDI found ([4]; Ia18 12.5 g/ha a.s.): 70
- herbicidal activity against PANDI found ([4]; Ia18 25 g/ha a.s.): 95
- herbicidal activity against SETVI found ([9]; Ia18 25 g/ha a.s.): 90
- herbicidal activity against SETFA found ([5]; Ia18 6.25 g/ha a.s.): 70
- herbicidal activity against ABUTH found ([6]; Ia18 12.5 g/ha a.s.): 55
- herbicidal activity against STEME found ([8]; Ia18 12.5 g/ha a.s.): 65
- herbicidal activity against STEME found ([8]; Ia18 13 g/ha a.s.): 65
